{"source": "ChEMBL document CHEMBL1201862", "about": "“PubChem BioAssay data set” (2004)", "key": {"[1]": {"assay": "HepG2 cell cytotoxicity, dose response, cytotoxicity control, ATP luminescence, cherry-pick, set 6 (AID 1053125)", "format": "functional, cell-based"}, "cells [2]": {"assay": "cells"}, "cells [3]": {"assay": "cells", "conditions": "HEK293"}, "cells [4]": {"assay": "cells", "conditions": "A549"}, "[5]": {"assay": "cytotoxicity toward HT-29 cells – cell-based, CellTiter-Glo luminescence, IC50, dose response (AID 1117330)", "format": "functional"}, "[6]": {"assay": "HeLa 2N DNA content increase, dose response, cell-based, IC50 (AID 1117349)", "format": "functional"}, "[7]": {"assay": "HeLa 4N DNA content increase, dose response, cell-based, IC50 (AID 1117351)", "format": "functional"}, "[8]": {"assay": "half-maximal inhibitory concentration for glucagon-like peptide-1 release, STC-1 cell line, dose-response (AID 1117345)", "format": "functional, cell-based"}, "[9]": {"assay": "cytotoxicity toward Colo320 cells – cell-based, CellTiter-Glo luminescence, IC50, dose response (AID 1117334)", "format": "functional", "conditions": "COLO 320"}, "[10]": {"assay": "CellTiter-Glo luminescent dose response of DLD-1 viability loss (AID 1117352)", "format": "functional"}, "[11]": {"assay": "HCT116 cell viability decrease, GSK3B pretreatment – CellTiter-Glo, IC50, dose response (AID 1117339)", "format": "functional", "conditions": "HCT-116"}, "[12]": {"assay": "SNU-C1 cell viability reduction, dose response, CellTiter-Glo luminescence (AID 1117323)", "format": "functional, cell-based"}, "[13]": {"assay": "cytotoxicity toward HCT116 cells – cell-based, CellTiter-Glo luminescence, IC50, dose response (AID 1117332)", "format": "functional", "conditions": "HCT-116"}, "[14]": {"assay": "RKO cell viability reduction, dose response, CellTiter-Glo luminescence (AID 1117322)", "format": "functional"}, "[15]": {"assay": "Concentration-dependent survival of SW480 colon cancer line, luminescence detection with CellTiter-Glo, half-maximal inhibitory concentration (AID 1117338)", "format": "functional"}, "[16]": {"assay": "Glucagon-like peptide 1 release potency, NCI-H716 cell line, dose-response, half-maximal inhibitory concentration (AID 1117344)", "format": "functional, cell-based"}, "[17]": {"molecular_target": "1-phosphatidylinositol 4,5-bisphosphate phosphodiesterase beta-3 (Homo sapiens, UniProt Q01970)", "sequence (Q01970 whole entry)": "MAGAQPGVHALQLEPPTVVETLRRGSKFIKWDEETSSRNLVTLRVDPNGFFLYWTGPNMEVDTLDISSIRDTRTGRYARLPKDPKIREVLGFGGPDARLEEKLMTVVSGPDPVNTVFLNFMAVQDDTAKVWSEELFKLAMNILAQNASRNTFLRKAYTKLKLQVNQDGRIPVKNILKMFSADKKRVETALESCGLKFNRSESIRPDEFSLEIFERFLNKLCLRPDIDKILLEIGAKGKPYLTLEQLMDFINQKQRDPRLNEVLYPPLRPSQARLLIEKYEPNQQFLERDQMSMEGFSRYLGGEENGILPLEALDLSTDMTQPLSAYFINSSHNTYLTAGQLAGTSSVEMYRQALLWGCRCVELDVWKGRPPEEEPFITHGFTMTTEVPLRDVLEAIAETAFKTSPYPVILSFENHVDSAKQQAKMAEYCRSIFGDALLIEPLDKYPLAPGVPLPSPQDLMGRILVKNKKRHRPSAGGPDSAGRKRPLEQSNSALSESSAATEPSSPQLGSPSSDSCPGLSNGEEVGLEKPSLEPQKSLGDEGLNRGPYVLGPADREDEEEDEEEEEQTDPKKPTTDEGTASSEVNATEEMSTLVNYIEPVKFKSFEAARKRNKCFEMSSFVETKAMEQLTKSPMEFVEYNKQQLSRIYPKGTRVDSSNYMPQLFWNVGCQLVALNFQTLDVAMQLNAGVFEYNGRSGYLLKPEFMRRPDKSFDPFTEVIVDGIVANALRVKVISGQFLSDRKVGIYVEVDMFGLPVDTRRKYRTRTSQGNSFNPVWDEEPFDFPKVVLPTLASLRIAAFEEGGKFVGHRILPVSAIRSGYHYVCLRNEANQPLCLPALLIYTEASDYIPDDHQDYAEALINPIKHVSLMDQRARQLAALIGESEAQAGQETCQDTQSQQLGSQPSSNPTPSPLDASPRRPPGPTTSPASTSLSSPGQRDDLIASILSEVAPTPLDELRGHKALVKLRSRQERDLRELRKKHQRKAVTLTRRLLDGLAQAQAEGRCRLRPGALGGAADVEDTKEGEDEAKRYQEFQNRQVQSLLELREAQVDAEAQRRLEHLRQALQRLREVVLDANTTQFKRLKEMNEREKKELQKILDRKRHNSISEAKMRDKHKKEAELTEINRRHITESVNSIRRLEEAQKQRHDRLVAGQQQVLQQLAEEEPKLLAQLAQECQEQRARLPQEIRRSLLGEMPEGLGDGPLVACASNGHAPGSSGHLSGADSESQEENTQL", "assay": "Fluorescence-based biochemical high throughput dose response assay to identify inhibitors of phospholipase C isozymes (PLC-B3)."}, "[18]": {"molecular_target": "1-phosphatidylinositol 4,5-bisphosphate phosphodiesterase gamma-1 (Homo sapiens, UniProt P19174)", "sequence (P19174 whole entry)": "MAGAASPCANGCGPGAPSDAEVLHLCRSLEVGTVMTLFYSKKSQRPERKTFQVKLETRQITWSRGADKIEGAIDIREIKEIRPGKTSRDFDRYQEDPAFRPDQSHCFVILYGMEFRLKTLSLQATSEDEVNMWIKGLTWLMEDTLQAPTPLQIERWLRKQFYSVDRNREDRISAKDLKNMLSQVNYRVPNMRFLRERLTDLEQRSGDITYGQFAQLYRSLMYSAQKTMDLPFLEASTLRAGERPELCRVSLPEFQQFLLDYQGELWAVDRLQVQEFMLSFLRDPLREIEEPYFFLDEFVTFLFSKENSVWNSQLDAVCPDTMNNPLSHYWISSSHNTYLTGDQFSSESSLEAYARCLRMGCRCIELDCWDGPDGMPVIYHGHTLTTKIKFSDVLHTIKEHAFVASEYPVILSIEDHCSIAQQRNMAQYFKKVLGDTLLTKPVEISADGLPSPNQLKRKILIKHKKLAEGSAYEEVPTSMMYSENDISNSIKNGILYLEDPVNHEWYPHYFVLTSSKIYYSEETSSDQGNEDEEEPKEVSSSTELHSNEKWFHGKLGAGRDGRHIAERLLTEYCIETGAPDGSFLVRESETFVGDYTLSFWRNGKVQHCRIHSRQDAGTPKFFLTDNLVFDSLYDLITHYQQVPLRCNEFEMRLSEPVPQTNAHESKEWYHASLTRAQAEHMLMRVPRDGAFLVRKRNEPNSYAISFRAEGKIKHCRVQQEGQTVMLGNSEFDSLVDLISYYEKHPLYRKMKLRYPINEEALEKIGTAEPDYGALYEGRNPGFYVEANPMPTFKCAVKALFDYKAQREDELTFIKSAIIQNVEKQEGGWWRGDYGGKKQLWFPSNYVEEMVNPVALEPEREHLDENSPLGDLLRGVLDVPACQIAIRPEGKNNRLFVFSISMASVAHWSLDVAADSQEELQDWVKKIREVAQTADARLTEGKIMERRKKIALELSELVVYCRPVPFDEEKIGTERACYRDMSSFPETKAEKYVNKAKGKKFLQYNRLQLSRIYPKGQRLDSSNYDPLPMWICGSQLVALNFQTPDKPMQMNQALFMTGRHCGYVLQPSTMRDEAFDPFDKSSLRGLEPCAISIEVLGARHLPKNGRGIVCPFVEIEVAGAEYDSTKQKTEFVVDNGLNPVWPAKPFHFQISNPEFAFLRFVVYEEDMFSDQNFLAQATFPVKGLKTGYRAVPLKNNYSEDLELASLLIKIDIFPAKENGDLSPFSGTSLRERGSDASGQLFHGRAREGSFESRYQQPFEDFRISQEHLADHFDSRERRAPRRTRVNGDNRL", "assay": "Counterscreen for inhibitors of phospholipase C isozymes (PLC-B3): Fluorescence-based biochemical high throughput dose response assay to identify inhibitors of phospholipase C isozymes (PLC-gamma1)."}, "[19]": {"assay": "Mtb BioA inhibitors by displacement, dose response, biochemical, coupled fluorescence displacement, 20-point, dry powder (AID 743357)", "format": "functional"}, "[20]": {"molecular_target": "Sphingosine 1-phosphate receptor 2 (Homo sapiens, UniProt O95136)", "sequence (O95136 whole entry)": "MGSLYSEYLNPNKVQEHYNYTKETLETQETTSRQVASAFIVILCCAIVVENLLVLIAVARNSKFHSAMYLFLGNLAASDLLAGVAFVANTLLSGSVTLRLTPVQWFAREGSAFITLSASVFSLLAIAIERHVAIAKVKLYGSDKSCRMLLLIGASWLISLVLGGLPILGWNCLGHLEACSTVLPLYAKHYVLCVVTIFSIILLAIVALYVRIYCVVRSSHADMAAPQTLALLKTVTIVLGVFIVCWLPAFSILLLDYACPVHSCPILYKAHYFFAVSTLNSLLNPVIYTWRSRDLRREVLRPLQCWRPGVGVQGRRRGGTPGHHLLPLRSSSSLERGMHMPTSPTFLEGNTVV", "assay": "Dose Response Cell Based Assay for Antagonists of the S1P2 Receptor. [Related pubchem assays: 856, 736 ]", "format": "functional"}, "[21]": {"assay": "cytotoxicity in KRAS-transformed pancreatic duct cells, primary screen, cell-based, fluorescence, HTS (AID 431)", "format": "functional", "conditions": "Homo sapiens"}, "[22]": {"assay": "Dose-response inhibition of insulin secretion in a rat insulinoma line at 5 mM glucose (AID 1117331)", "format": "functional, cell-based", "conditions": "INS-1E"}, "[23]": {"assay": "cytotoxicity in HPDE-C7 cells, cell-based, fluorescence, HTS (AID 430)", "format": "functional", "conditions": "Homo sapiens"}, "H4": {"system": "H4", "assay": "Luminescence Cell-Based Dose Response HTS to Identify Activators of 5'UTR Stem-Loop Driven Prion Protein mRNA Translation in H4 Neuroglioblastoma Cells. [Related pubchem assays: 1829 (Project Summary), 1814 (Primary HTS)]", "format": "functional", "conditions": "Homo sapiens"}, "[24]": {"assay": "Luminescence Cell-Based Dose Confirmation HTS to Identify Activators of 5'UTR Stem-Loop Driven Alpha-Synuclein mRNA Translation in H4 Neuroglioblastoma Cells. [Related pubchem assays: 1829 (Project Summary), 1814 (Primary HTS)]", "format": "functional"}, "NADPH oxidase 1": {"molecular_target": "NADPH oxidase 1 (Homo sapiens, UniProt Q9Y5S8)", "sequence (Q9Y5S8 whole entry)": "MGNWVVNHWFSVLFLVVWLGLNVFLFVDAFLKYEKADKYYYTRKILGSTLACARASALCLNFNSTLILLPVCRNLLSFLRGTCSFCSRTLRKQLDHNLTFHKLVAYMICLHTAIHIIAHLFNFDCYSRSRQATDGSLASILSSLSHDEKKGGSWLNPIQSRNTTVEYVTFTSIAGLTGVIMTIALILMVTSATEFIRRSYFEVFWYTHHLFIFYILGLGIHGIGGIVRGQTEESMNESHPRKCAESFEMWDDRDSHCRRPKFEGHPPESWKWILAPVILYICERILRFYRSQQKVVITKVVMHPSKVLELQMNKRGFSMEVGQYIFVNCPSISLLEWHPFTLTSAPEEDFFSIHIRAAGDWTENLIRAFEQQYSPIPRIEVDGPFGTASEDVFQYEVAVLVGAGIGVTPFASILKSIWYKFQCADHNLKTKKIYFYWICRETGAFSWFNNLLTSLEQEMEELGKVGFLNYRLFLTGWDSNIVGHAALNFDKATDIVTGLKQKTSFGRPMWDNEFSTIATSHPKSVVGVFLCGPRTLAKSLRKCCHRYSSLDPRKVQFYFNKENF", "assay": "Late-stage luminescence-based cell-based dose response assay to identify inhibitors of NADPH oxidase 1 (NOX1): Synthesized analogs.", "format": "functional"}, "[25]": {"assay": "Luminescence Cell-Based Dose Response HTS to Identify Activators of Luciferase Translation or Activity in H4 […] Cells. [Related pubchem assays: 1829 (Project Summary), 1814 (Primary HTS)]", "format": "functional"}, "[26]": {"molecular_target": "Diphosphomevalonate decarboxylase (Streptococcus pneumoniae serotype 2 (strain D39 / NCTC 7466), UniProt Q9FD53)", "sequence (Q9FD53 whole entry)": "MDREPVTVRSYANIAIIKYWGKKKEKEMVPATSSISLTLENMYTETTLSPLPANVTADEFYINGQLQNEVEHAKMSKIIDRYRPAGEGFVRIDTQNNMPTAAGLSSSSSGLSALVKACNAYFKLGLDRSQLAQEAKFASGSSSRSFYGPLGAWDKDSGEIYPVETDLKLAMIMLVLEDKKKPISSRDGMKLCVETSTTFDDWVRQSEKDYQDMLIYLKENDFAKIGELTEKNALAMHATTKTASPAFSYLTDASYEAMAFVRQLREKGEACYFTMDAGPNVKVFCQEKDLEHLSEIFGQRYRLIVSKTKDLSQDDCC", "assay": "S. pneumoniae DPM-DC inhibition retest, confirmation, biochemical, cuvette format, coupled NADH fluorescence (AID 1028)", "format": "functional"}, "[27]": {"assay": "CEM21 cell cytotoxicity, dose response, cytotoxicity control, plate reader, dry powder (AID 687026)", "format": "functional, cell-based"}, "[28]": {"assay": "HIV Env cell-cell fusion inhibitors, dose response, HIV entry, plate reader, dry powder (AID 687023)", "format": "functional, cell-based"}, "[29]": {"assay": "cytotoxicity dependent on PAX8, dose response, cell-based, plate reader, dry powder (AID 743049)", "format": "functional"}, "Paired box protein Pax-8": {"molecular_target": "Paired box protein Pax-8 (Homo sapiens, UniProt Q06710)", "sequence (Q06710 whole entry)": "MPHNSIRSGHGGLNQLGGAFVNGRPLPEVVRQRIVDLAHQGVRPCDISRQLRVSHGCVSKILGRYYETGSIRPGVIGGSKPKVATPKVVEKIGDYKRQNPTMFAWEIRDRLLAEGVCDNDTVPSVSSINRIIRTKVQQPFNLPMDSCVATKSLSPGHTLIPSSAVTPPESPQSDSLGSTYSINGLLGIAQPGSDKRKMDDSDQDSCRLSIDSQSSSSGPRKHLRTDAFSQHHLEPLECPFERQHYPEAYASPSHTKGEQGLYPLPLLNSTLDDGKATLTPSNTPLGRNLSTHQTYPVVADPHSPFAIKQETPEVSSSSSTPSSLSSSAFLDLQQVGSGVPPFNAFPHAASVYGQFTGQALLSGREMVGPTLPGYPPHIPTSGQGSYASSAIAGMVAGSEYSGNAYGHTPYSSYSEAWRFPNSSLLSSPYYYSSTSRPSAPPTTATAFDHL", "assay": "inhibitors of PAX8-driven TPO luciferase reporter, dose response, RMG-I cells, cherry-pick (AID 687027);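 note: luciferase reporter driven by Pax8 target thyroperoxidase promoter measured by SteadyGlo luminescence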", "format": "functional, cell-based"}, "[30]": {"assay": "cytotoxicity in OVCAR8 ovarian cancer cells, dose response, PAX8 project, cell-based, plate reader, dry powder samples (AID 743197)", "format": "functional", "conditions": "OVCAR-8"}, "[31]": {"molecular_target": "Glutathione-S-transferase (Schistosoma japonicum, UniProt Q26513)", "sequence (Q26513 whole entry)": "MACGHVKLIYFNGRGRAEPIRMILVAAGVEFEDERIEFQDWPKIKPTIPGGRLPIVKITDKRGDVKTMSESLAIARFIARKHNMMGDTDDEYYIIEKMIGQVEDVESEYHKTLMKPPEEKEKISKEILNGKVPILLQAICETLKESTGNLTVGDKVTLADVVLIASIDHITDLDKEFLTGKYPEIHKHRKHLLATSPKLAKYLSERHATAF", "assay": "biotin-GST/anti-GST TR-FRET signal inhibitors, dose response, artefact control for Vif-APOBEC3G degradation inhibitor project, biochemical (AID 1117362)", "format": "functional"}, "[32]": {"molecular_target": "RNA-editing ligase 1, mitochondrial (Trypanosoma brucei brucei, UniProt P86926)", "sequence (P86926 whole entry)": "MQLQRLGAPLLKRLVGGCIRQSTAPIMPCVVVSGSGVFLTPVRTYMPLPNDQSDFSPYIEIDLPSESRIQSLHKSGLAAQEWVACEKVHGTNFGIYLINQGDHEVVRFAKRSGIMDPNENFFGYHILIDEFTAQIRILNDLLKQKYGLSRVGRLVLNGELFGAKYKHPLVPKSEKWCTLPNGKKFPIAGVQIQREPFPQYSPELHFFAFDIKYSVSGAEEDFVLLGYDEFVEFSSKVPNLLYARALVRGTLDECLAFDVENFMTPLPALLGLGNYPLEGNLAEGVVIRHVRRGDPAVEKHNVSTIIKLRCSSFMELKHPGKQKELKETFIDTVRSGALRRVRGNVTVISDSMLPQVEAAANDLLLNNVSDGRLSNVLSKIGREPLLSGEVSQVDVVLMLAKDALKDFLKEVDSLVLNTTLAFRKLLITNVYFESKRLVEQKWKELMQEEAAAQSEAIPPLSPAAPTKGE", "assay": "TbREL1 ligase inhibitors, dose response, biochemical, fluorescence, Trypanosoma brucei (AID 1117295)", "format": "functional"}}, "note": "Where “and” joins values, the source holds several entries; their conditions need not be identical. Equal values may be shown once. Calls of active or inactive are those of the source."}
{"smiles": "N=c1oc2cc(O)ccc2cc1C(=O)Nc1ccc(Cl)cc1", "values": [{"measurement": "AC50", "setting": "[1]", "value": "> 52 µM (inactive)"}, {"measurement": "AC50", "setting": "cells [2]", "value": "1.95 µM (active)"}, {"measurement": "AC50", "setting": "cells [3]", "value": "> 52 µM (inactive)"}, {"measurement": "AC50", "setting": "cells [4]", "value": "> 52 µM (inactive)"}]}
{"smiles": "COC(=O)Nc1nc2cc(Sc3ccccc3)ccc2[nH]1", "note": "[FENBENDAZOLE]", "values": [{"measurement": "IC50", "setting": "[5]", "value": "> 20 µM (inactive)"}, {"measurement": "IC50", "setting": "[6]", "value": "0.204 µM (active)"}, {"measurement": "IC50", "setting": "[7]", "value": "0.195 µM (active)"}, {"measurement": "IC50", "setting": "[8]", "value": "> 20 µM (inactive)"}, {"measurement": "IC50", "setting": "[9]", "value": "> 20 µM (inactive)"}, {"measurement": "IC50", "setting": "[10]", "value": "0.0673 µM (active)"}, {"measurement": "IC50", "setting": "[11]", "value": "0.003 µM (active)"}, {"measurement": "IC50", "setting": "[12]", "value": "> 20 µM (inactive)"}, {"measurement": "IC50", "setting": "[13]", "value": "0.001 µM (active)"}, {"measurement": "IC50", "setting": "[14]", "value": "0.001 µM (active)"}, {"measurement": "IC50", "setting": "[15]", "value": "> 20 µM (inactive)"}, {"measurement": "IC50", "setting": "[16]", "value": "> 40 µM (inactive)"}]}
{"smiles": "O=C(O)CCCN1C(=O)/C(=C\\c2ccco2)SC1=S", "values": [{"measurement": "IC50", "setting": "[17]", "value": "> 123 µM (inactive)"}, {"measurement": "IC50", "setting": "[18]", "value": "> 123 µM (inactive)"}]}
{"smiles": "COc1ccc(C(=O)N2CCN(c3ccc(C(C)=O)cc3)CC2)cc1OC", "values": [{"measurement": "AC50", "setting": "[19]", "value": "11.7 µM (active)"}]}
{"smiles": "O=C(O)c1sc2cc(C(F)(F)F)cnc2c1-c1ccccn1", "values": [{"measurement": "IC50", "setting": "[20]", "value": "> 30 µM (not active)"}]}
{"smiles": "CN1C[C@H](CNC(=O)OCc2ccccc2)C[C@@H]2c3cccc4c3c(cn4C)C[C@H]21", "note": "[METERGOLINE]", "values": [{"measurement": "EC50", "setting": "[21]", "value": "> 20 µM (not active)"}, {"measurement": "IC50", "setting": "[22]", "value": "> 33.3 µM (inactive)"}, {"measurement": "EC50", "setting": "[23]", "value": "> 20 µM (not active)"}]}
{"smiles": "c1ccc2c(c1)Nc1cc3ccccc3cc1S2", "values": [{"measurement": "EC50", "setting": "H4", "value": "5.77 µM (active)"}, {"measurement": "EC50", "setting": "[24]", "value": "98.5 µM (active)"}, {"measurement": "IC50", "setting": "NADPH oxidase 1", "value": "7.58 µM (active)"}, {"measurement": "EC50", "setting": "[25]", "value": "6.01 µM (active)"}]}
{"smiles": "O=C(c1ccc(-n2sc3ccccc3c2=O)cc1)N1CCOCC1", "values": [{"measurement": "IC50", "setting": "[26]", "value": "13.1 µM (active)"}]}
{"smiles": "Clc1ccc2c(c1)C(C1=NCCN1)c1ccccc1CS2", "note": "(stereo not given)", "values": [{"measurement": "AC50", "setting": "[27]", "value": "> 70 µM (inactive)"}, {"measurement": "AC50", "setting": "[28]", "value": "42.5 µM (active) and 54 µM (active)"}]}
{"smiles": "C[C@@H]1CN([C@H](C)CO)C(=O)CCCn2cc(nn2)CO[C@H]1CN(C)C(=O)Nc1ccc(-c2cccs2)cc1", "values": [{"measurement": "AC50", "setting": "[29]", "value": "1.65 µM (active)"}, {"measurement": "AC50", "setting": "Paired box protein Pax-8", "value": "< 0.26 µM (active)"}, {"measurement": "AC50", "setting": "[30]", "value": "> 70 µM (inactive)"}]}
{"smiles": "CC1CCCCN1Cc1ccc(N(C)C)cc1", "note": "(stereo not given)", "values": [{"measurement": "IC50", "setting": "[31]", "value": "> 100 µM (active)"}]}
{"smiles": "CC(C)c1c(Cl)c(O)c(-c2ccccc2)c(=O)n1-c1ccc(F)cc1", "values": [{"measurement": "IC50", "setting": "[32]", "value": "61.6 µM (inactive)"}]}
